Results from patent publication US20230322822A1, “ARYL PHOSPHOROUS OXIDE COMPOUNDS AND USE THEREOF” (Chengdu Di'ao Jiuhong Pharmaceutical Factory, priority 2020, published 2023).

Experiments:
NCI-H3122 cells = assay: In vivo pharmacodynamic study, subcutaneously implanted tumor NCI-H3122 (two-sided model); set-up: species or system BALB/c nude mouse
Method: Passages were treated twice a week. When the cell number reached requirement, the cells were collected, counted and inoculated.
Administration mode and frequency: oral gavage was carried out with an administration volume of 10 mL/kg, and the model group was administered with the same volume of solvent. The administration was once per day and continuously carried out for 16 days.
(§1) General conditions such as spirit, activity, food intake and the like of the mice were observed every day, and the weight was measured thrice every week; the short diameter (a) and the long diameter (b) of each mouse tumor were measured thrice a week with a vernier caliper, and the tumor volume was calculated according to the formula (a^2×b)/2. The Relative Tumor Volume (RTV) was calculated from the measured tumor volume, wherein RTV=Vt/V0, wherein V0 was the tumor volume at random grouping (i.e., d0) and Vt was the tumor volume at each measurement (i.e., dn). The relative tumor proliferation rate of the evaluation index of the anti-tumor activity was calculated according to the following formula: relative tumor proliferation rate T/C (%): […]
Note: TRTV: treatment group RTV; CRTV model control group RTV.

[1] = Pharmacokinetic test in SD rats; type: in vivo; settings: male, rat, plasma, PO, 20 mg/kg
Method: Six SD rats were taken, which were all male, and about 8-9 weeks old, weighing about 430 g/rat, and fasting but allowed to drink water for 18 hours.
The rats were divided into two groups, wherein the rats in group 1 were dosed with compound 2 and the rats in group 2 were dosed with control compound 4, both orally and intragastrically in a dose of 20 mg/kg. A lavage fluid was prepared using 70 mM citric acid buffer (pH 3.0) at an administration volume of 5 mL/kg.
0.6 mL of blood (EDTA-2K anti-coagulated) was collected from rat orbits at 0.5, 1.5, 3, 4.5, 8, 12, 24, 36, 48 and 72 hours after the administration respectively. The plasma was separated and stored at −70° C., and the plasma samples were analyzed using liquid chromatography tandem mass spectrometry (LC-MS/MS). The plasma concentration-time data of the individual rates was analyzed using a non-compartmental model of DAS3.3.1 software and pharmacokinetic parameters of the test compounds were calculated.

[2] = system: BaF3 EGFR-DTC(C797S/T790M/Del19) cells; assay: In-vivo pharmacodynamic study, transplanted tumor model of BaF3 EGFR-DTC(C797S/T790M/Del19) cells in nude mice; set-up: species or system BALB/c nude mice
Method: The models used in this test were subcutaneous transplanted tumor models of engineered BaF3 EGFR-DTC(C797S/T790M/Del19) cells in BALB/c nude mice. The engineered BaF3 cells were cultured in vitro suspension. […] Passages were treated twice a week. When the cell number reached requirement, the cells were collected, counted and inoculated. 0.2 mL (10^6) cells (added with matrigel, 1:1 by volume) were subcutaneously inoculated in the right back of each mouse, and divided into groups for administration with 6 mice per group when the mean tumor volume reached 109 mm^3.
Administration mode and frequency: Oral gavage was carried out with an administration volume of 10 mL/kg, and the model group was administered with the same volume of solvent. The administration was once per day and continuously carried out for 14 days.
as §1
(Note: TRTV: treatment group RTV; CRTV: model control group RTV. According to the therapeutic effect evaluation standard in the Technical Guidelines for Non-clinical Research of Cytotoxic Anti-tumor Drugs Issued by National Medical Products Administration of China, the value (T/C %≤40%) was effective).

[3] = Single administration toxicity test, orally intragastric administration to SD rats; type: in vivo; settings: for Mortality Female: 5 female rats; for Mortality Female / Mortality Male / Mortality/total number of animals: day 15; for Mortality Male: 5 male rats
Method: 8-week-old SD rats, 10 per group, male and female half, were purchased from Beijing SiPeiFu. The rats were tested after 3 days of acclimatization in this laboratory. The oral administration was performed by intragastric administration with an administration volume of 10 mL/kg. The rats were fasted and not forbidden to drink water for 17 hours before administration. The rats in the control group were given an equal volume of solvent via oral gavage. The feeding was resumed about 2 hours after the end of the administration.
Observations were made twice daily after the administration. The day of first administration was defined as day 1 of the test. The test was carried out for 14 consecutive days, and ended in day 15.

[4] = 20 mg/kg oral gavage once per day
[5] = 40 mg/kg oral gavage once per day
[6] = 25 mg/kg oral gavage once per day
[7] = 50 mg/kg oral gavage once per day

With COc1cc(N2CCC(N3CCN(C)CC3)CC2)c(C)cc1Nc1ncc(Br)c(Nc2ccc(C)cc2P(C)(C)=O)n1 [Compound 2] the “NCI-H3122 Tumor volume Day 0” value (NCI-H3122 cells; [4]) was 116 mm^3, the “NCI-H3122 T/C Day 2” value (NCI-H3122 cells; [4]) was 81.79% and the “NCI-H3122 Tumor volume Day 2” value (NCI-H3122 cells; [4]) was 115 mm^3. The “NCI-H3122 T/C Day 4” value (NCI-H3122 cells; [4]) was 49.46%, the “NCI-H3122 Tumor volume Day 4” value (NCI-H3122 cells; [4]) was 92 mm^3 and the “NCI-H3122 T/C Day 6” value (NCI-H3122 cells; [4]) was 34.18%. The “NCI-H3122 Tumor volume Day 6” value (NCI-H3122 cells; [4]) was 84 mm^3, the “NCI-H3122 T/C Day 9” value (NCI-H3122 cells; [4]) was 19.71% and the “NCI-H3122 Tumor volume Day 9” value (NCI-H3122 cells; [4]) was 74 mm^3. The “NCI-H3122 T/C Day 11” value (NCI-H3122 cells; [4]) was 13.58%, the “NCI-H3122 Tumor volume Day 11” value (NCI-H3122 cells; [4]) was 63 mm^3 and the “NCI-H3122 T/C Day 13” value (NCI-H3122 cells; [4]) was 10.25%. The “NCI-H3122 Tumor volume Day 13” value (NCI-H3122 cells; [4]) was 58 mm^3, the “NCI-H3122 T/C Day 16” value (NCI-H3122 cells; [4]) was 8.16% and the “NCI-H3122 Tumor volume Day 16” value (NCI-H3122 cells; [4]) was 61 mm^3. For the same molecule, the “NCI-H3122 Tumor volume Day 0” value (NCI-H3122 cells; [5]) was 116 mm^3, the “NCI-H3122 T/C Day 2” value (NCI-H3122 cells; [5]) was 72.16% and the “NCI-H3122 Tumor volume Day 2” value (NCI-H3122 cells; [5]) was 101 mm^3. The “NCI-H3122 T/C Day 4” value (NCI-H3122 cells; [5]) was 29.76%, the “NCI-H3122 Tumor volume Day 4” value (NCI-H3122 cells; [5]) was 54 mm^3 and the “NCI-H3122 T/C Day 6” value (NCI-H3122 cells; [5]) was 19.38%. For the same molecule, the “NCI-H3122 Tumor volume Day 6” value (NCI-H3122 cells; [5]) was 47 mm^3, the “NCI-H3122 T/C Day 9” value (NCI-H3122 cells; [5]) was 8.54% and the “NCI-H3122 Tumor volume Day 9” value (NCI-H3122 cells; [5]) was 33 mm^3. For the same molecule, the “NCI-H3122 T/C Day 11” value (NCI-H3122 cells; [5]) was 7.2%, the “NCI-H3122 Tumor volume Day 11” value (NCI-H3122 cells; [5]) was 34 mm^3 and the “NCI-H3122 T/C Day 13” value (NCI-H3122 cells; [5]) was 5.28%. The “NCI-H3122 Tumor volume Day 13” value (NCI-H3122 cells; [5]) was 32 mm^3, the “NCI-H3122 T/C Day 16” value (NCI-H3122 cells; [5]) was 3.6% and the “NCI-H3122 Tumor volume Day 16” value (NCI-H3122 cells; [5]) was 28 mm^3. For the same molecule, the AUC(0-t) [1] was 96300 ng·h/mL, the Cmax [1] was 2310 ng/mL and the “Tumor volume Day 0” value [2, 6] was 109 mm^3. The “Relative tumor proliferation rate T/C Day 3” value [2, 6] was 59.22%, the “Tumor volume Day 3” value [2, 6] was 87 mm^3 and the “Relative tumor proliferation rate T/C Day 5” value [2, 6] was 34.07%. The “Tumor volume Day 5” value [2, 6] was 62 mm^3, the “Relative tumor proliferation rate T/C Day 7” value [2, 6] was 10.38% and the “Tumor volume Day 7” value [2, 6] was 41 mm^3. The “Relative tumor proliferation rate T/C Day 10” value [2, 6] was 5.06%, the “Tumor volume Day 10” value [2, 6] was 31 mm^3 and the “Relative tumor proliferation rate T/C Day 12” value [2, 6] was 3.12%. The “Tumor volume Day 12” value [2, 6] was 27 mm^3, the “Tumor volume Day 14” value [2, 6] was 41 mm^3 and the “Tumor volume Day 0” value [2, 7] was 109 mm^3. For the same molecule, the “Relative tumor proliferation rate T/C Day 3” value [2, 7] was 44.97%, the “Tumor volume Day 3” value [2, 7] was 67 mm^3 and the “Relative tumor proliferation rate T/C Day 5” value [2, 7] was 24.07%. The “Tumor volume Day 5” value [2, 7] was 44 mm^3, the “Relative tumor proliferation rate T/C Day 7” value [2, 7] was 7.97% and the “Tumor volume Day 7” value [2, 7] was 32 mm^3. The “Relative tumor proliferation rate T/C Day 10” value [2, 7] was 3.62%, the “Tumor volume Day 10” value [2, 7] was 22 mm^3 and the “Relative tumor proliferation rate T/C Day 12” value [2, 7] was 1.91%. The “Tumor volume Day 12” value [2, 7] was 17 mm^3, the “Tumor volume Day 14” value [2, 7] was 12 mm^3 and the “Mortality Female” value ([3]; 25 mg/kg single dose) was 0. For the same molecule, the “Mortality Male” value ([3]; 25 mg/kg single dose) was 0, the “Mortality/total number of animals” value ([3]; 25 mg/kg single dose) was 0/10 and the “Mortality Female” value ([3]; 75 mg/kg single dose) was 0. The “Mortality Male” value ([3]; 75 mg/kg single dose) was 0, the “Mortality/total number of animals” value ([3]; 75 mg/kg single dose) was 0/10 and the “Mortality Female” value ([3]; 100 mg/kg single dose) was 0. The “Mortality Male” value ([3]; 100 mg/kg single dose) was 0, the “Mortality/total number of animals” value ([3]; 100 mg/kg single dose) was 0/10 and the “Mortality Female” value ([3]; 125 mg/kg single dose) was 0. For the same molecule, the “Mortality Male” value ([3]; 125 mg/kg single dose) was 0, the “Mortality/total number of animals” value ([3]; 125 mg/kg single dose) was 0/10 and the “Mortality Female” value ([3]; 150 mg/kg single dose) was 0. For the same molecule, the “Mortality Male” value ([3]; 150 mg/kg single dose) was 1, the “Mortality/total number of animals” value ([3]; 150 mg/kg single dose) was 1/10 and the “Mortality Female” value ([3]; 200 mg/kg single dose) was 0. The “Mortality Male” value ([3]; 200 mg/kg single dose) was 0, the “Mortality/total number of animals” value ([3]; 200 mg/kg single dose) was 0/10 and the MTD at 14 days ([3]; both sexes, rat, in vivo, po, SD rats, single orally intragastric administration, read-out: Maximum Tolerated Dose (MTD)) was 125 mg/kg.
